The values below are quoted from earlier work in patent publication EP4241780A1, “ENRICHED POLYPHENOLIC FRACTIONS OF ARONIA EXTRACTS AND USES THEREOF” (Diana, priority 2022, dated 2023).

This data set relates to HepG2 cells. Conditions: 100% pure compounds, reference [31], Figure 4.

Consider `O=c1c(O)c(-c2ccc(O)c(O)c2)oc2cc(O)cc(O)c12` [quercetin], for which the “EC50 intracellular antioxidant activity of pure compounds” value is on record as 7 µg/mL.

In the case of `Oc1ccc(C=Cc2cc(O)cc(O)c2)cc1` [resveratrol], the “EC50 intracellular antioxidant activity of pure compounds” value was 14.8 µg/mL.
